Reference: patent publication US20230287391A1, “KRAB FUSION REPRESSORS AND METHODS AND COMPOSITIONS FOR REPRESSING GENE EXPRESSION” (THE GOVERNING COUNCIL OF THE UNIVERSITY OF TORONTO, priority 2020, published 2023)

Tests used:
Type in all cases: cell-based, human
[1] = tested on: SV40 promoter driving EGFP expression in HEK293T cells; experiment: SV40-EGFP reporter silencing by KRAB-dCas9 fusions in HEK293T cells; settings: KRAB fused to N terminus of dCas9, flow cytometry 21 d after infection
Excerpt: (§1) The human genome encodes over 350 KRAB domain proteins. It was postulated that KRAB domains would differ in their ability to silence gene expression when fused to dCas9. 57 human KRAB domains were individually fused to the N terminus of dCas9 and assayed for activity when recruited to one of two different genomically integrated reporter constructs. In one, they were recruited to a SV40 promoter driving EGFP expression in HEK293T cells, and in the other tethered to a 7×TetO array downstream of the polyadenylation site of a PGK1-EGFP-pA reporter in K562 cells (FIG. 1a). KRAB domains had strikingly different effects, spanning from almost complete silencing to no change at all (FIG. 1b,c and FIG. 5). The differences were not explained by expression levels of the dCas9 fusion (FIG. 3). […] KRAB was also fused to the C-terminus of dCas9 with similar results (see Example 5 and FIG. 3).
(§2) Cell culture. All HEK293T cells, including the SV40-EGFP reporter cell line (gift from Lei Stanley Qi lab, Stanford University), were maintained in Dulbecco's Modified Eagle's Medium (DMEM) with 10% fetal bovine serum (FBS), and 1% penicillin-streptomycin. Since the SV40-EGFP reporter cell line was originally generated with a random integration of lentivirus, a clonal line was made to ensure homogeneously high expression levels of EGFP and its targeting gRNA. […]

[2] = tested on: 7×TetO array downstream of the polyadenylation site of a PGK1-EGFP-pA reporter in K562 cells; experiment: PGK1-EGFP-pA reporter silencing by KRAB-dCas9 fusions tethered to a 7xTetO array in K562 cells; settings: KRAB fused to N terminus of dCas9
Excerpt: as §1, §2

HEK293T cells = experiment: Genome-wide CRISPRi cell viability dropout screen (Dolcetto Set A); settings: depletion of gRNAs for gold-standard essential vs non-essential genes after 21 days
Excerpt: Finally, the performance of the three KRAB effector constructs was investigated in a large-scale unbiased screen. […] These cells were infected with the recently described Dolcetto Set A gRNA library targeting 18,901 genes with three gRNAs per gene and measured gRNA depletion after 21 days. The relative depletion of gRNAs targeting gold-standard essential genes and non-essential genes with each construct was compared with receiver operating characteristics (ROC) curves. […] It should be noted that the AUROC values reported here are somewhat lower than what has been reported for CRISPRi screens in other cell lines like K562 and […] but in line with the previously conducted screen in HEK293T cells (FIG. 2D, E). The lower efficiency may be due to the lower expression level of TRIM28 in HEK293T cells (FIG. 3).
CRISPRi. Viral titer for each cell line was determined on 15-cm dishes with a range of virus volumes (0, 50, 100, 150, 200, 250 and 500 μl). Validated HEK293T cells with heterogeneous expression of each repressor-dCas9 derivative was transduced at a dose resulting in ˜30% […]. Selection was done with 1 μg/ml puromycin 24 hrs post transduction resulting in complete selection within 48-72 hrs (TO). At ˜30% infection efficiency, enough cells were transduced to achieve an initial representation of >500-fold for each dCas9 variant. […]

[3] = tested on: SV40-EGFP reporter cell line; experiment: ABA-induced recruitment of KRAB-PYL1 to ABI1-dCas9 at the SV40-EGFP reporter
Excerpt: The difference in KRAB-domain activity might be explained either by their intrinsic potency or by their distinct temporal dynamics. […] The interaction between plant proteins […] and PYL1 is induced by abscisic acid (ABA) in a reversible manner (FIG. 1f). A clonal SV40-EGFP reporter cell line expressing ABI1—dCas9 and a gRNA targeting two sites on the SV40 promoter was generated. These cells were then infected with either ZIM3 or KOX1 KRAB domain fused to PYL1 and treated with ABA for 20 d (FIG. 1g, solid lines). […] When ABA was withdrawn after 9d, derepression occurred with similar dynamics with both KRAB domains (FIG. 1g, dashed lines). Thus, the difference in KRAB-domain potency is not due to slower dynamics of KOX1 KRAB induced repression. […] This is consistent with previous studies showing that KRAB domains can mediate silencing via both reversible and irreversible mechanisms.

| Substance | repression of EGFP reporter [1] | repression of EGFP reporter ([1]; listed as KOX1) | repression of EGFP reporter [2] | AUROC (gRNA-level) (HEK293T cells) | AUROC (gene-level) (HEK293T cells) | level of EGFP repression ([3]; 100 μM ABA for 20 d, compared with KOX1 KRAB-PYL1) | EGFP expression relative to the original levels ([3]; after 40-d silencing followed by ABA washout) [%] |
| --- | --- | --- | --- | --- | --- | --- | --- |
| KOX1 KRAB: KRAB domain from KOX1 (ZNF10) fused to dCas9, used in current implementations of CRISPRi | not a particularly strong repressor | did not repress the reporter very robustly | not a particularly strong repressor | 0.62 | 0.66 | – | – |
| ZIM3 KRAB-PYL1: ZIM3 KRAB domain fused to PYL1 (SEQ ID NO: 16), recruited to ABI1-dCas9 by abscisic acid | – | – | – | – | – | higher level of repression | 10 |
